Results taken from paper PMC7211198, “Phase 1b study of a small molecule antagonist of human chemokine (C-C motif) receptor 2 (PF-04136309) in combination with nab-paclitaxel/gemcitabine in first-line treatment of metastatic pancreatic ductal adenocarcinoma” (Investigational New Drugs, 2019).

Test: Safety and tolerability (TEAEs, SAEs, DLTs, RP2D) in phase Ib study
Type: in vivo, human
Details: 500 mg BID + nab-P/Gem
From the text: Safety assessments included collection of adverse events (AEs), serious AEs (SAEs), vital signs and physical examination, electrocardiogram (12-lead), laboratory assessments, including pregnancy test, and verification of concomitant treatments. A patient was considered as DLT-evaluable if the patient experienced a DLT or if otherwise, in the absence of a DLT, the patient received at least 85% of the planned doses of each study drug in the first 28-day cycle. DLTs were defined as any of the following events occurring in the first cycle of treatment (days 1 through 28) and attributed (i.e., judged to be at least possibly related) to the combination of PF-04136309 plus nab-paclitaxel/gemcitabine, where relationship with the combination could not be ruled out. DLTs were hematologic events of grade 4 neutropenia lasting >5 days; febrile neutropenia; grade ≥ 3 neutropenic infection; grade ≥ 3 thrombocytopenia with grade ≥ 2 bleeding; grade 4 thrombocytopenia; and nonhematologic events of grade 3 toxicities. Exceptions included nausea and vomiting responding to prophylaxis and/or treatment and lasting <7 days from each chemotherapy infusion period; diarrhea responding to treatment and lasting <7 days; grade 3 fatigue lasting <7 days; grade 3 QT interval corrected for heart rate prolongation (>500 msec) persisting after correction of any reversible causes; and/or grade 3 aspartate aminotransferase (AST) and/or alanine aminotransferase (ALT) increase lasting ≤7 days. All grade 4 toxicities and a delay of >2 weeks in receiving the next scheduled cycle due to persistent treatment-related toxicities were considered DLTs. AEs meeting DLT criteria in the dose-expansion phase included grade 3 events of diarrhea, hypokalemia, and dysesthesia and grade 4 hypoxia. […] AEs were graded according to the National Cancer Institute Common Terminology Criteria for Adverse Events, version 4.03.

O=C(NCC(=O)N1CC[C@H](N[C@H]2CC[C@@](O)(c3ccc(-c4ncccn4)cn3)CC2)C1)c1cccc(C(F)(F)F)c1 [PF-04136309]
3 (17.6) n (%): DLT (n = 17, first cycle (days 1 through 28)) | ALT increase, grade ≥3 (n = 17, treatment-related TEAE) | AST increase, grade ≥3 (n = 17, treatment-related TEAE) | Pneumonitis, Grade 3 (all-causality SAE) | Pneumonitis, Total (all-causality SAE) | ALT increase, Grade 3 (all-causality TEAE) | Abdominal pain, Grade 2 (all-causality TEAE) | Abdominal pain, Grade 3 (all-causality TEAE) | Alopecia, Grade 2 (all-causality TEAE)
1 (5.9) n (%): Any SAE, Grade 1 (all-causality SAE) | Any SAE, Grade 2 (all-causality SAE) | Any SAE, Grade 4 (all-causality SAE) | Any SAE, Grade 5 (all-causality SAE) | Chest pain, Grade 3 (all-causality SAE) | Chest pain, Total (all-causality SAE) | Dyspnea, Grade 3 (all-causality SAE) | Dyspnea, Total (all-causality SAE) | Episcleritis, Grade 2 (all-causality SAE) | Episcleritis, Total (all-causality SAE) | Hypoxia, Grade 4 (all-causality SAE) | Hypoxia, Total (all-causality SAE) | Klebsiella bacteremia, Grade 3 (all-causality SAE) | Klebsiella bacteremia, Total (all-causality SAE) | Liver abscess, Grade 3 (all-causality SAE) | Liver abscess, Total (all-causality SAE) | Musculoskeletal pain, Grade 3 (all-causality SAE) | Musculoskeletal pain, Total (all-causality SAE) | Neck pain, Grade 3 (all-causality SAE) | Neck pain, Total (all-causality SAE) | Pneumonia, Grade 5 (all-causality SAE) | Pneumonia, Total (all-causality SAE) | Pyrexia, Grade 1 (all-causality SAE) | Pyrexia, Grade 2 (all-causality SAE) | Small intestinal obstruction, Grade 3 (all-causality SAE) | Small intestinal obstruction, Total (all-causality SAE) | ALT increase, Grade 1 (all-causality TEAE) | ALT increase, Grade 4 (all-causality TEAE) | AST increase, Grade 2 (all-causality TEAE)
5 (29.4) n (%): AST increase, Grade 3 (all-causality TEAE)
4 (23.5) n (%): Anemia, grade ≥3 (n = 17, treatment-related TEAE) | Fatigue, grade ≥3 (n = 17, treatment-related TEAE) | Lymphopenia, grade ≥3 (n = 17, treatment-related TEAE)
11 (64.7) n (%): Any SAE, Total (all-causality SAE)
0 n (%): Abdominal pain, Grade 1 (all-causality SAE) | Abdominal pain, Grade 2 (all-causality SAE) | Abdominal pain, Grade 4 (all-causality SAE) | Abdominal pain, Grade 5 (all-causality SAE) | Chest pain, Grade 1 (all-causality SAE) | Chest pain, Grade 2 (all-causality SAE) | Chest pain, Grade 4 (all-causality SAE) | Chest pain, Grade 5 (all-causality SAE) | Dyspnea, Grade 1 (all-causality SAE) | Dyspnea, Grade 2 (all-causality SAE) | Dyspnea, Grade 4 (all-causality SAE) | Dyspnea, Grade 5 (all-causality SAE) | Episcleritis, Grade 1 (all-causality SAE) | Episcleritis, Grade 3 (all-causality SAE) | Episcleritis, Grade 4 (all-causality SAE) | Episcleritis, Grade 5 (all-causality SAE) | Hypoxia, Grade 1 (all-causality SAE) | Hypoxia, Grade 2 (all-causality SAE) | Hypoxia, Grade 3 (all-causality SAE) | Hypoxia, Grade 5 (all-causality SAE) | Klebsiella bacteremia, Grade 1 (all-causality SAE) | Klebsiella bacteremia, Grade 2 (all-causality SAE) | Klebsiella bacteremia, Grade 4 (all-causality SAE) | Klebsiella bacteremia, Grade 5 (all-causality SAE) | Liver abscess, Grade 1 (all-causality SAE) | Liver abscess, Grade 2 (all-causality SAE) | Liver abscess, Grade 4 (all-causality SAE) | Liver abscess, Grade 5 (all-causality SAE) | Musculoskeletal pain, Grade 1 (all-causality SAE) | Musculoskeletal pain, Grade 2 (all-causality SAE) | Musculoskeletal pain, Grade 4 (all-causality SAE) | Musculoskeletal pain, Grade 5 (all-causality SAE) | Neck pain, Grade 1 (all-causality SAE) | Neck pain, Grade 2 (all-causality SAE) | Neck pain, Grade 4 (all-causality SAE) | Neck pain, Grade 5 (all-causality SAE) | Pneumonia, Grade 1 (all-causality SAE) | Pneumonia, Grade 2 (all-causality SAE) | Pneumonia, Grade 3 (all-causality SAE) | Pneumonia, Grade 4 (all-causality SAE) | Pneumonitis, Grade 1 (all-causality SAE) | Pneumonitis, Grade 2 (all-causality SAE) | Pneumonitis, Grade 4 (all-causality SAE) | Pneumonitis, Grade 5 (all-causality SAE) | Pyrexia, Grade 3 (all-causality SAE) | Pyrexia, Grade 4 (all-causality SAE) | Pyrexia, Grade 5 (all-causality SAE) | Small intestinal obstruction, Grade 1 (all-causality SAE) | Small intestinal obstruction, Grade 2 (all-causality SAE) | Small intestinal obstruction, Grade 4 (all-causality SAE) | Small intestinal obstruction, Grade 5 (all-causality SAE) | ALT increase, Grade 5 (all-causality TEAE) | AST increase, Grade 1 (all-causality TEAE) | AST increase, Grade 4 (all-causality TEAE) | AST increase, Grade 5 (all-causality TEAE) | Abdominal pain, Grade 1 (all-causality TEAE) | Abdominal pain, Grade 4 (all-causality TEAE) | Abdominal pain, Grade 5 (all-causality TEAE) | Alopecia, Grade 3 (all-causality TEAE)
7 (41.2) n (%): Any SAE, Grade 3 (all-causality SAE) | ALT increase, Total (all-causality TEAE) | Alopecia, Grade 1 (all-causality TEAE)
2 (11.8) n (%): Leukopenia, grade ≥3 (n = 17, treatment-related TEAE) | Neutropenia, grade ≥3 (n = 17, treatment-related TEAE) | Abdominal pain, Grade 3 (all-causality SAE) | Abdominal pain, Total (all-causality SAE) | Pyrexia, Total (all-causality SAE) | ALT increase, Grade 2 (all-causality TEAE)
6 (35.3) n (%): AST increase, Total (all-causality TEAE) | Abdominal pain, Total (all-causality TEAE)
